Test results: patent US7084301B2 (Ranbaxy Laboratories Limited, priority 2003, dated 2006)
Like-named read-outs stand apart in the source and are kept apart here.

Tests used:
[1] = target: T1, rat α1A-adrenoceptor (prostate) (Rattus norvegicus, UniProt P43140); assay: In-vitro functional study, agonist-induced contractile response on isolated rat prostate; assay type: biochemical
T1 sequence (P43140 1-466): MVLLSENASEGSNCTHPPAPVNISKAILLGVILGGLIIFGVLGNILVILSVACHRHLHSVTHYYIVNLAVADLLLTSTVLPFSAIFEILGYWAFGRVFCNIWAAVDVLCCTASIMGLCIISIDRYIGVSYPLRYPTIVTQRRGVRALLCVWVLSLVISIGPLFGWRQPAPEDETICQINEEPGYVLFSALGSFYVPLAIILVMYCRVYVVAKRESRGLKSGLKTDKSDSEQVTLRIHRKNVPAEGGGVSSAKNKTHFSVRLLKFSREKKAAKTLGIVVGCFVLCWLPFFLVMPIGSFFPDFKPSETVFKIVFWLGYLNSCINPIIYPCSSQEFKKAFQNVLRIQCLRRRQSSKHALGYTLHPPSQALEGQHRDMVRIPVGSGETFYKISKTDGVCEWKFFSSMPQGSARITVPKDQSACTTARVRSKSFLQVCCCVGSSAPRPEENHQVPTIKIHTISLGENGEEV
Experimental: Aorta, prostate and spleen tissues were isolated from urethane anaesthetized (1.5 gm/kg) male wistar rats. […] A resting tension of 2 g (aorta) or 1 g (spleen and prostate) was applied to tissues. Contractile response was monitored using a force displacement transducer and recorded on chart recorders. Tissues were allowed to equilibrate for 2 hours. At the end of equilibration period, concentration response curves to norepinephrine (aorta) and phenylepinephrine (spleen and prostate) were obtained in absence and presence of tested compound (at concentrations of […]). Antagonist affinities were calculated and expressed as pKB vales in Table II.
(§1) To compare the differences in pKB at the α1-arenrenoceptor subtypes one-way ANOVA followed by Dunett ‘t’ test was applied. A p<0.05 was considered statistically significant.

[2] = target: T2, rat α1B-adrenoceptor (spleen) (Rattus norvegicus, UniProt P15823); assay: In-vitro functional study, agonist-induced contractile response on isolated rat spleen; assay type: biochemical
T2 sequence (P15823 1-515): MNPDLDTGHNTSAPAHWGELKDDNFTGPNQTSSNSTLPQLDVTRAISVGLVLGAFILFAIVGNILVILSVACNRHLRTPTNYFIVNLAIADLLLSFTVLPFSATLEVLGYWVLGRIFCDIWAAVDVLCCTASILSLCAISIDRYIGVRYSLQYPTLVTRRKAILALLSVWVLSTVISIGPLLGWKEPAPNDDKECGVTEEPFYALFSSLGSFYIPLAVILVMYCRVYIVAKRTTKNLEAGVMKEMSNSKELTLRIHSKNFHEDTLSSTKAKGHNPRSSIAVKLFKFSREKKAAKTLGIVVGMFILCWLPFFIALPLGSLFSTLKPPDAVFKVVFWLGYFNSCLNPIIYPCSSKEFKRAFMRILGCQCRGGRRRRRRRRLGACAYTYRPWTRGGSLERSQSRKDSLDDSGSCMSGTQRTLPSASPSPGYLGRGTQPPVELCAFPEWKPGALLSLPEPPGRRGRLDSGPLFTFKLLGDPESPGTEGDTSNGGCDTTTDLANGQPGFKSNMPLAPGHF
Experimental: Aorta, prostate and spleen tissues were isolated from urethane anaesthetized (1.5 gm/kg) male wistar rats. Isolated tissues were mounted in organ bath containing Krebs Henseleit buffer of following compostion (mM): NaCl 118; KCl 4.7; CaCl2 2.5; MgSO4.7H2O 1.2; NaHCO3 25; KH2PO4 1.2; glucose 11.5. Buffer was maintained at 37° C. and aerated with a mixture of 95% O2 and 5% CO2. A resting tension of 2 g (aorta) or 1 g (spleen and prostate) was applied to tissues. Contractile response was monitored using a force displacement transducer and recorded on chart recorders. Tissues were allowed to equilibrate for 2 hours. At the end of equilibration period, concentration response curves to norepinephrine (aorta) and phenylepinephrine (spleen and prostate) were obtained in absence and presence of tested compound (at concentrations of […]). Antagonist affinities were calculated and expressed as pKB vales in Table II.
as §1

[3] = target: T3, 5-HT1A receptors (Homo sapiens, UniProt P08908); assay: biochemical; assay type: binding
T3 sequence (P08908 1-422): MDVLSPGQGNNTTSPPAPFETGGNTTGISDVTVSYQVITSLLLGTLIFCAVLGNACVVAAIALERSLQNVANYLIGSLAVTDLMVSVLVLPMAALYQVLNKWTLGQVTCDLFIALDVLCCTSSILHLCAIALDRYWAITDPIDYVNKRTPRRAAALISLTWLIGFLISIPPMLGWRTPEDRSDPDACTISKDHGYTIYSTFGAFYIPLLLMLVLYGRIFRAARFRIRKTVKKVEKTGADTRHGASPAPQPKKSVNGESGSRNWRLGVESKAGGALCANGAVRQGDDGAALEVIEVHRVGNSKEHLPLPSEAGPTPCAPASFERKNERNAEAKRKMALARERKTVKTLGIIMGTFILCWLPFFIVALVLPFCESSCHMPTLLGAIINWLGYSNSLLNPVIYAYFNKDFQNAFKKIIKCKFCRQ
Experimental: Receptor binding assays were performed using human recombinant 5HT1A receptors. […] Non-specific binding was defined by 10 μM Metergoline.

[4] = target: D-3 receptors (Homo sapiens, UniProt P35462); assay: Radioligand-receptor binding assay, human recombinant D3 receptors, [3H]Spiperone
Chain of D-3 receptors (P35462 whole entry): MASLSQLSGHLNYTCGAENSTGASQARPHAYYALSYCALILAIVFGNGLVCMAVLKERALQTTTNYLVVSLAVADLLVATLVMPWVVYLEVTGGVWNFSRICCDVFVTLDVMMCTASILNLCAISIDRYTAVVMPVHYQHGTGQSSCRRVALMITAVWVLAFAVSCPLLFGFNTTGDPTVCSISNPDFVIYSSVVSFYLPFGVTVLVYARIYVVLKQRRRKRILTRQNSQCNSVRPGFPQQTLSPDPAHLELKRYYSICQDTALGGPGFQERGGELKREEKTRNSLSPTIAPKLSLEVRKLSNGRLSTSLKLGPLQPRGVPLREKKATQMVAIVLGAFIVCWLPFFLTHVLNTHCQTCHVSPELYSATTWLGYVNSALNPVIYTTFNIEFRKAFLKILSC
Experimental: Receptor binding assays were performed using human recombinant D3 receptors. […] Non-specific binding was defined by 25 μM S(−)Sulpiride.

[5] = tested on: anaesthetised normotensive rats; assay: Hypotensive effect in anaesthetised normotensive rats; assay type: in vivo, rat; conditions: for effect on blood pressure / effect on heart rate accompanying fall in blood pressure: anaesthetised normotensive rats, cumulative 0.01-10 μg/kg; for ED20: Effective dose to produce a fall in blood pressure by 20%: urethane-anaesthetised male normotensive rats, cumulative doses via femoral vein
Experimental: Male normotensive rats were anaesthetised with urethane (1.2 g/kg, i.p.). Carotid artery and femoral vein were cannulated for recording blood pressure and administration of test compounds respectively. Trachea was cannulated to maintain the airway patency. Rats were divided into two groups of 10 rats each. Group I received compound of Formula I, and Group II received Tamsulosin. Compounds were administered cumulatively at dose level of 0.01, 0.03, 0.1, 0.3, 1 & 10 μg/kg and effects on blood pressure and heart rate were monitored. Each subsequent dose in cumulative dose range was administered after previous response had stabilized.
Blood pressure and heart rate were recorded before and after drug treatment on a Grass polygraph using a Statham pressure transducer and tachograph. Effect on blood pressure was expressed as percentage change from the basal level. ED20 was calculated by fitting the cumulative dose response data in non-linear regression analysis and the value was taken from the curve. Effect on heart rate was expressed as change in beats/min.
To compare the difference amongst the dose groups one-way ANOVA followed by Dunett ‘t’ test was applied. A p of <0.05 was considered statistically significant.

SMILES | Kb ([1]; rat prostate, phenylepinephrine-induced contraction, read-out: pKB α1A (converted)) [nM] | Kb ([2]; rat spleen, phenylepinephrine-induced contraction, *p < 0.05 vs pKB at prostate tissue, read-out: pKB α1B (converted)) [nM] | Ki ([3]; human recombinant receptors, read-out: PKi 5HT1A (converted)) [nM] | Ki [4] [nM] | effect on blood pressure [5] | effect on heart rate accompanying fall in blood pressure [5] | ED20: Effective dose to produce a fall in blood pressure by 20% [5] [µg/kg] | Kb [1] [nM] | α1A versus α1B selectivity ([1]; functional assays, rat tissues) [fold] | Kb [2] [nM] | Ki [3] [nM] | fold greater α1A versus 5HT1A selectivity as compared to tamsulosin ([3]; Tables I and III) [fold] | fold lower affinity for 5HT1A receptors than tamsulosin ([3]; human recombinant receptors) [fold] | fold greater α1A versus D3 selectivity as compared to tamsulosin ([4]; Table I and IV) [fold] | fold lower affinity for D3 receptors than tamsulosin ([4]; human recombinant receptors) [fold]
CCOc1ccccc1OCCNC(C)Cc1ccc(OC)c(S(N)(=O)=O)c1 (single isomer, unassigned; (-)) [Tamsulosin, (−) isomer of 5-[2-[2-(2-ethoxyphenoxy)ethylamino]-2-methylethyl]-2-methoxybenzene sulfonamide, reference compound] | 0.0309 | 0.275 | 0.794 | 0.282 | dose dependent fall in blood pressure | decrease in the heart rate | 0.3 |  |  |  |  |  |  |  | 
CCOc1ccccc1OCCN[C@H](C)Cc1ccc(O)c(S(N)(=O)=O)c1 [Formula I, R (−)-5-[2-[[2-(2-ethoxyphenoxy)ethyl]amino]propyl]-2-hydroxybenzenesulfonamide] |  |  |  | 1.78 | dose dependent fall in blood pressure | increase in heart rate | 0.52 | 0.0162 | 31 | 0.501 | 9.77 | 27 | 12.6 | 14 | 6
